Data published in patent US20160158200A1, “Combinations of Hepatitis C Virus Inhibitors” (priority 2013, published 2016).

System: HCV genotype-1a variant with glutamine 30 changed to glutamate in the NS5A protein
Type: cell-based
Settings: test compound titrated with BMS-790052 fixed at 200 nM; genotype 1a Q30E replicon
Procedure, shortened: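 Synergy was assessed by combining several fixed amounts of an NS5A-targeting compound with a titration of the second compound of interest.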

| Structure (SMILES) | Fold-Synergistic 1a (Q30E) [fold] |
| --- | --- |
| CC(C)CC(=O)NC(c1nc(-c2ccc(-c3ccc(-c4cn(C)c(C(NC(=O)CC(C)C)C(C)C)n4)cc3)cc2)cn1C)C(C)C.O=C(O)C(F)(F)F.O=C(O)C(F)(F)F (centres unmarked) [Compound Y-18] | <10 |
| CC(C)[C@H](NC(=O)C(C)(C)F)c1nc(-c2ccc(-c3ccc(-c4c[nH]c([C@@H](NC(=O)C(C)(C)F)C(C)C)n4)cc3F)cc2)c[nH]1.O=C(O)C(F)(F)F [Compound N-97] | >100 |
| COC(C)(C)C(=O)N[C@H](c1nc(-c2ccc(-c3ccc(-c4c[nH]c([C@@H](NC(=O)C(C)(C)OC)C(C)(C)C)n4)cc3)cc2)c[nH]1)C(C)(C)C [Compound P-13] | >100 |
| Cc1cccc(C(=O)N[C@H](c2ncc(-c3ccc(-c4ccc(-c5cnc([C@@H](NC(=O)c6cccc(C)c6)C(C)C)[nH]5)cc4)cc3)[nH]2)C(C)C)c1 [Compound S-80] | >100 |
| COC(=O)N[C@@H](C(=O)N[C@H](c1ncc(-c2ccc(-c3ccc(-c4cnc([C@@H](NC(=O)[C@H](NC(=O)OC)c5ccccc5)C(C)C)[nH]4)cc3)cc2)[nH]1)C(C)C)c1ccccc1 [Compound P-103] | >100 |
| CC(C)(C)[C@H](NC(=O)C1(C(=O)O)CCCCC1)c1nc(-c2ccc(-c3ccc(-c4c[nH]c([C@@H](NC(=O)C5(C(=O)O)CCCCC5)C(C)(C)C)n4)cc3)cc2)c[nH]1 [Compound N-147] | >100 |
| CC(C)(C)OC(=O)N1CC2(CC2)C[C@H]1C(=O)N[C@H](c1nc(-c2ccc(-c3ccc(-c4c[nH]c([C@@H](NC(=O)[C@@H]5CC6(CC6)CN5C(=O)OC(C)(C)C)C(C)(C)C)n4)cc3)cc2)c[nH]1)C(C)(C)C [Compound W-94] | >100 |
| CC(C)[C@H](NC(=O)C(C)(C)C(F)(F)F)c1ncc(-c2ccc(-c3ccc(-c4cnc([C@@H](NC(=O)C(C)(C)C(F)(F)F)C(C)C)[nH]4)cc3)cc2)[nH]1 [Compound P-87] | >100 |
| CC1(C)CCN(C(=O)C2CCC(F)(F)CC2)C1c1nc(-c2ccc(-c3ccc(-c4c[nH]c(C5N(C(=O)C6CCC(F)(F)CC6)CCC5(C)C)n4)cc3)cc2)c[nH]1 (centres unmarked) [Compound W-217] | >10 |
| CC(C)(C(=O)N[C@H](c1nc(-c2ccc(-c3ccc(-c4cnc([C@@H](NC(=O)C(C)(C)C5CC5)C(C)(C)C)[nH]4)cc3)cc2)c[nH]1)C(C)(C)C)C1CC1 [Compound B-167] | >100 |
| CC(C)[C@H](NC(=O)[C@H](NC(=O)OCc1ccccc1)C(C)C)c1ncc(-c2ccc(-c3ccc(-c4cnc([C@@H](NC(=O)[C@H](NC(=O)OCc5ccccc5)C(C)C)C(C)C)[nH]4)cc3)cc2)[nH]1 [Compound S-245] | >100 |
| CC(C)[C@H](NC(=O)C(C)(C)F)c1nc(-c2ccc(-c3ccc(-c4c[nH]c([C@@H](NC(=O)C(C)(C)F)C(C)C)n4)c(F)c3)cc2)c[nH]1.O=C(O)C(F)(F)F [Compound N-90] | >100 |
| CC(C)[C@H](NC(=O)C1(C)CCCCC1)c1ncc(-c2ccc3c(c2)Cc2cc(-c4cnc([C@@H](NC(=O)C5(C)CCCCC5)C(C)C)[nH]4)ccc2-3)[nH]1.O=C(O)C(F)(F)F [Compound N-69] | >100 |
| O=C(N1CCC(F)(F)CC1)N1CCC[C@H]1c1ncc(-c2ccc(-c3ccc(-c4cnc([C@@H]5CCCN5C(=O)N5CCC(F)(F)CC5)[nH]4)cc3)cc2)[nH]1 [Compound P-131] | >100 |
| Cc1ccccc1C(C(=O)NC(c1nc(-c2ccc(-c3ccc(-c4c[nH]c(C(NC(=O)C(c5ccccc5C)C(C)C)C(C)(C)C)n4)cc3)cc2)c[nH]1)C(C)(C)C)C(C)C (mixture of isomers) [Compound S-258] | >100 |
| O=C(c1cnc(Cl)c2ccccc12)N1CCC[C@H]1c1ncc(-c2ccc(-c3ccc(-c4cnc([C@@H]5CCCN5C(=O)c5cnc(Cl)c6ccccc56)[nH]4)cc3)cc2)[nH]1 [Compound S-200] | >100 |
| COc1ccc(C(=O)C(=O)N[C@H](c2ncc(-c3ccc(-c4ccc(-c5cnc([C@@H](NC(=O)C(=O)c6ccc(OC)c(Cl)c6)C(C)C)[nH]5)cc4)cc3)[nH]2)C(C)C)cc1Cl [Compound P-113] | >100 |
| CC(C)(C)[C@H](NC(=O)C(C)(C)n1cnnn1)c1nc(-c2ccc(-c3ccc(-c4c[nH]c([C@@H](NC(=O)C(C)(C)n5cnnn5)C(C)(C)C)n4)cc3)cc2)c[nH]1 [Compound S-277] | >100 |
| CC(C)[C@H](NC(=O)C1CCC(F)(F)CC1)c1ncc(-c2ccc(C#Cc3ccc4nc([C@@H](NC(=O)C5CCC(F)(F)CC5)C(C)C)[nH]c4c3)cc2)[nH]1 [Compound B51] | >100 |
| CC(C)[C@H](NC(=O)c1cc(Cl)ccc1F)c1ncc(-c2ccc(-c3ccc(-c4cnc([C@@H](NC(=O)c5cc(Cl)ccc5F)C(C)C)[nH]4)cc3)cc2)[nH]1 [Compound Y-24] | >100 |
| CC(C)(C)[C@H](NC(=O)[C@@]1(C)CC(F)(F)CO1)c1nc(-c2ccc(-c3ccc(-c4c[nH]c([C@@H](NC(=O)[C@@]5(C)CC(F)(F)CO5)C(C)(C)C)n4)cc3)cc2)c[nH]1 [Compound Y-77] | >100 |
| Cc1cc(-c2ccc(-c3c[nH]c([C@@H](NC(=O)c4ccc(Cl)s4)C(C)C)n3)cc2)ccc1-c1c[nH]c([C@@H](NC(=O)c2ccc(Cl)s2)C(C)C)n1.O=C(O)C(F)(F)F [Compound N-83] | >100 |
| CC1([C@H](NC(=O)C(O)(CF)CF)c2nc(-c3ccc(-c4ccc(-c5c[nH]c([C@@H](NC(=O)C(O)(CF)CF)C6(C)CC6)n5)cc4)cc3)c[nH]2)CC1 [Compound N-141] | >100 |
| CC1(O)CC(C(=O)N[C@H](c2nc(-c3ccc(-c4ccc(-c5c[nH]c([C@@H](NC(=O)C6CC(C)(O)C6)C(C)(C)C)n5)cc4)cc3)c[nH]2)C(C)(C)C)C1 (single isomer, unassigned) [Compound W-170] | >100 |
| CC(C)(C)[C@H](NC(=O)c1ccc(C(F)(F)F)s1)c1nc(-c2ccc(-c3ccc(-c4c[nH]c([C@@H](NC(=O)c5ccc(C(F)(F)F)s5)C(C)(C)C)n4)cc3)cc2)c[nH]1 [Compound N-114] | >100 |
| CC(C)(C)[C@H](NC(=O)C1(C2(O)CCC(F)(F)CC2)CC1)c1ncc(-c2ccc(-c3ccc4nc([C@@H](NC(=O)C5(C6(O)CCC(F)(F)CC6)CC5)C(C)(C)C)[nH]c4c3)cc2)[nH]1 [Compound B58B] | >100 |
| CC(C)N(C(=O)C(=O)N[C@H](c1nc(-c2ccc(-c3ccc(-c4c[nH]c([C@@H](NC(=O)C(=O)N(C(C)C)C5CC5)C5(C)CC5)n4)cc3)cc2)c[nH]1)C1(C)CC1)C1CC1 [Compound W-58] | >100 |
| CC(C)[C@H](NC(=O)OC1CCCC1)c1ncc(-c2ccc(-c3ccc(-c4cnc([C@@H](NC(=O)OC5CCCC5)C(C)C)[nH]4)cc3)cc2)[nH]1 [Compound S-213] | >100 |
| COC1(C(=O)C(=O)N[C@H](c2ncc(-c3ccc(-c4ccc(-c5cnc([C@@H](NC(=O)C(=O)C6(OC)CCC(F)(F)CC6)C(C)C)[nH]5)cc4)cc3)[nH]2)C(C)C)CCC(F)(F)CC1 [Compound P-126] | >100 |
